Read-outs that look alike come from different tables or passages of the source.
Columns and labels:
[1] = target: T1, Recombinant human integrin αVβ3 (Homo sapiens, UniProt P05106+P06756); assay: Inhibition of biotinylated vitronectin binding to purified αVβ3 receptor (solid phase receptor binding assay); conditions: conjugates, Table 2; mean ± SD of triplicate determinations
T1 construct: purchased R&D Systems, Minneapolis, MN, USA
Procedure: Conjugates 7–11 were evaluated for their ability to inhibit biotinylated vitronectin binding to the purified αVβ3 receptor. Screening assays were performed by incubating the immobilized integrin receptor with solutions of the cyclo[DKP-RGD]-α-amanitin and cyclo[DKP-isoDGR]-α-amanitin conjugates 7–11 at different concentrations (10^−12 to 10^−5 M) in the presence of biotinylated vitronectin (1 µg mL^−1) and measuring bound vitronectin. […]
to assist the dissolution). The solution obtained was filtered (polypropylene, 0.45 μm, 13 mm ø, PK/100) and injected in the HPLC, affording purified products. Purity analyses were carried on a Dionex Ultimate 3000 instrument equipped with a Dionex RS Variable Wavelenght detector (column: Atlantis® Prep T3 OBDTM 5 μm 19 × 100 mm). The analyte (1 mg) was dissolved in 1 mL of H2O and was injected using the same gradient used in the purification step. The analysis of the integrals and the relative percentage of purity were performed with the software Chromeleon 6.80 SR11 Build 3161. Also, preparative HPLC LaPrep∑ equipped with autosampler AS3950 and a Phenomenex Luna C-18(2) column, 10 µm, 250 × 21.2 mm, with precolumn at 30 mL/min flow rate and analytical HPLC performed on Hitachi Chromaster (column oven Chromaster 5310, pump Chromaster 5110, autosampler Chromaster 5210, DAD Chromaster 5430) equipped with a Phenomenex Luna C-18(2) column, 10 µm, 250 × 4.6 mm, with precolumn at 1.4 mL/min flow rate were used. Freeze-drying: The product was dissolved in water and frozen with dry ice. The freeze-drying was carried out at least for 48 h at −50 °C using the instrument 5Pascal Lio5P DGT.
Solid phase receptor binding assays
Recombinant human integrin αVβ3 (R&D Systems, Minneapolis, MN, USA) was diluted to 0.5 µg/mL in coating buffer containing 20 mM Tris-HCl (pH 7.4), 150 mM NaCl, 1 mM MnCl2, 2 mM CaCl2, and 1 mM MgCl2. […] Absorbance at 415 nm was read in a SynergyTM HT Multi-Detection Microplate Reader (BioTek Instruments, Inc.). […]

[2] = tested on: U87 cells (human glioblastoma, αVβ3+); assay: cells; assay type: cell-based; conditions: for IC50: 96 hours treatment, triplicate, read-out: IC50 U87 (αVβ3+), inhibition of cell viability
Procedure: (§1) The cell lines were treated with different concentrations of the free drug α-amanitin and conjugates 7–11 for 96 hours. […]
(§2) described recently.[S1] The SNP profiles matched known profiles or were unique. The purity of the cell lines was validated using the Multiplex cell Contamination Test by Multiplexion (Heidelberg, Germany) as described recently.[S2] No mycoplasma, SMRV or interspecies contamination was detected. U87-MG, MDA-MB 468 and A549 cells were cultivated continuously for not more than 3 months in MEM Eagle´s, DMEM or Ham´s F12 medium, respectively, supplemented with 10% heat inactivated fetus calf serum, L-glutamine and antibiotics. Cell lines were maintained at 37 °C and 5% CO2 in a high humidity atmosphere.
(§3) Cell therapy and viability assay
(§4) Cell viability assays were performed in U87-MG, A549 and MDA-MB 468 cell lines according to the following procedure: 2 × 10^3 cells/well were plated in 96-well black clear bottom plates (Perkin Elmer) and incubated overnight. 1:5 serial dilutions of compounds 7–11 were prepared in cell culture media. The compounds were added to the cell culture and incubated for additional 96 h. Starting concentration of compounds 7–11 in the wells was 1 × 10−5 M and cell viability was determined with the CellTiterGlo 2.0 assay (Promega) in accordance to manufacturer’s instructions. The cell viability was calculated in relation to the non-treated controls for each cell line. All samples were measured in triplicate. Data analysis was carried out using software GraphPad Prism (GraphPad Software Inc., La Jolla, CA, USA).
Competition experiment of compounds 10 and 11
The competition experiment s were performed in U87-MG and MDA-MB 468 cell lines according to the following procedure: 2 × 10^3 cells/well were plated in 96-well black clear bottom plates (Perkin Elmer) and incubated overnight. A solution containing 1 × 10−4 M of the conjugates 10 or 11 and 5 × 10−3 M of cilengitide (50-fold excess of ligand in comparison to the conjugate) was prepared in the growth medium and 1:5 serial dilutions were prepared in cell culture media. The compounds were added to cell culture and incubated for 96 h. The starting concentration of the compounds in the wells was 0.01 mM whereas that of cilengitide was 0.5 mM. The cell viability was determined with the CellTiterGlo 2.0 assay (Promega) in accordance to manufacturer’s instructions and the viability was calculated in relation to the non-treated controls for each cell line. All samples were measured in triplicate. Data analysis was carried out using software GraphPad Prism (GraphPad Software Inc., La Jolla, CA, USA).
(§5) [S1] F. Castro, W. G. Dirks, S. Fähnrich, A. Hotz-Wagenblatt, M. Pawlita, M. Schmitt, Int. J. Cancer […]
(§6) [S2] M. Schmitt, M. Pawlita, Nucleic Acids Res. 2009, 37, e119.

[3] = tested on: MDA-MB-468 cells (breast adenocarcinoma, αVβ3−); assay: cells; assay type: cell-based; conditions: 96 hours treatment, triplicate, read-out: IC50 MDA-MB-468 (αVβ3−), inhibition of cell viability
Procedure: as §1, §2, §3
as §4, with “USA). […]” for “USA).”
as §5, §6

[4] = tested on: A549 cells (human lung carcinoma, αVβ3−); assay: cells; assay type: cell-based
Procedure: as §1, §2, §3
as §4, with “USA). […]” for “USA).”

[5] = tested on: αVβ3 positive and αVβ3 negative cell line; set-up: method as in PMID 28449309; conditions: αVβ3 positive vs αVβ3 negative cell line; cited from earlier work
αVβ5 receptor [6] = assay: Inhibition of biotinylated vitronectin binding to αVβ5 receptor; conditions: ratio of IC50 values of Table 1
αVβ5 receptor [7] = target: αVβ5 receptor; set-up: method as in PMID 22517378, PMID 23424096; conditions: free ligands, Table 1; mean ± SD of triplicate determinations; read-out: IC50 αVβ5, inhibition of biotinylated vitronectin binding; cited from earlier work
αVβ3 = tested on: αVβ3; set-up: method as in PMID 28074920; conditions: read-out: IC50 αVβ3 binding; cited from earlier work
αVβ5 = tested on: αVβ5; set-up: method as in PMID 28074920; conditions: read-out: IC50 αVβ5 binding; cited from earlier work
α5β1 = tested on: α5β1; set-up: method as in PMID 28074920; conditions: read-out: IC50 α5β1 binding; cited from earlier work

T1 sequence (P06756 31-992 limits assumed): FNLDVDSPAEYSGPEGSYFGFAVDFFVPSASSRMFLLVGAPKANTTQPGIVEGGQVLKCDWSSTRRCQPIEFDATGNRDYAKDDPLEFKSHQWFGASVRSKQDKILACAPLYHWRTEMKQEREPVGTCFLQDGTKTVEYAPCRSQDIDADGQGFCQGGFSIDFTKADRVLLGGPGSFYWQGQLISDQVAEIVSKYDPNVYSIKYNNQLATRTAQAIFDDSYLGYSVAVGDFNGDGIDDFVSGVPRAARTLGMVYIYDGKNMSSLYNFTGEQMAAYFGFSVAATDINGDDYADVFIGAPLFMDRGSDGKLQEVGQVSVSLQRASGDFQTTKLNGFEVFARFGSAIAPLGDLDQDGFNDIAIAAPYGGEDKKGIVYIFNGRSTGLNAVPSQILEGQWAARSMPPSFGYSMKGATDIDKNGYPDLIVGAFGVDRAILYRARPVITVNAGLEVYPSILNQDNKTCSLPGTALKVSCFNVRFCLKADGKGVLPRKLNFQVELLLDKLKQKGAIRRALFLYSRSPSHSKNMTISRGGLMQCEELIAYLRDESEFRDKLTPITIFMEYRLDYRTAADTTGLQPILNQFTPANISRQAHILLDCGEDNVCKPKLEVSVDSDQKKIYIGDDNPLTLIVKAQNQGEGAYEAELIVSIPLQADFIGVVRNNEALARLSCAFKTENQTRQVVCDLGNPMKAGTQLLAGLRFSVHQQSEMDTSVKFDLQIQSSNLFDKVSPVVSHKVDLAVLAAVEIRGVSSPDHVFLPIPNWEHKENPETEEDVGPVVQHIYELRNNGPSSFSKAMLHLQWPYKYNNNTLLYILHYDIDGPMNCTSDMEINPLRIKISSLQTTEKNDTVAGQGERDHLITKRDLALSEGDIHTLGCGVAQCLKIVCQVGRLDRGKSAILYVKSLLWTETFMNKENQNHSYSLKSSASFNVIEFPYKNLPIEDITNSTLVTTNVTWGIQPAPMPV
T1 sequence (P05106 27-718 limits assumed): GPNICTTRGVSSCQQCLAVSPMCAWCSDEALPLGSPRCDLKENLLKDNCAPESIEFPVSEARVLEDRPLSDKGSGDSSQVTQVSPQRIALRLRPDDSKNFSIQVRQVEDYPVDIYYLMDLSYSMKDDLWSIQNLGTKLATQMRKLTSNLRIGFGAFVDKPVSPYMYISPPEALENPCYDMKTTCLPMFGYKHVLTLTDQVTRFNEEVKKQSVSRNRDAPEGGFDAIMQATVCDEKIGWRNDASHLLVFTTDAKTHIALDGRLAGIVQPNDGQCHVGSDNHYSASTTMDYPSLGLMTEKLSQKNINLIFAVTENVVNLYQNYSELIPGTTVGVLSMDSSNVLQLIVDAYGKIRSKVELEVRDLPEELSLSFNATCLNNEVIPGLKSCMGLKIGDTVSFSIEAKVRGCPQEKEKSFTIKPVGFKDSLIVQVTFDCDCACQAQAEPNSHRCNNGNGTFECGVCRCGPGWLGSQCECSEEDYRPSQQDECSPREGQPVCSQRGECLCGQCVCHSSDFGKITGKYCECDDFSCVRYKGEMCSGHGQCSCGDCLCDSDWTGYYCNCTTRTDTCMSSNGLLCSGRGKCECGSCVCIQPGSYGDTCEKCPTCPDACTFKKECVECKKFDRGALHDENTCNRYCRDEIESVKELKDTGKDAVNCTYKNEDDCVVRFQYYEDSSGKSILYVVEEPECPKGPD

CC[C@H](C)[C@@H]1NC(=O)CNC(=O)[C@@H]2Cc3c([nH]c4cc(OCCCCCCNC(=O)CCCC(=O)NCc5ccc(CN6C(=O)[C@H]7CC(=O)N[C@@H](CCCNC(=N)N)C(=O)NCC(=O)N[C@@H](CC(=O)O)C(=O)NC[C@H]6C(=O)N7)cc5)ccc34)[S+]([O-])C[C@H](NC(=O)CNC1=O)C(=O)N[C@@H](CC(N)=O)C(=O)N1C[C@H](O)C[C@H]1C(=O)N[C@@H]([C@@H](C)[C@@H](O)CO)C(=O)N2 (stereo partly drawn) [Compound 7, cyclo[DKP-RGD]-uncleavable-α-amanitin]
IC50 [1]: 11.6 ± 2.4 nM
IC50 [2]: 2550 ± 37.6 nM
IC50 [3]: 1110 ± 228 nM

CC[C@H](C)[C@@H]1NC(=O)CNC(=O)[C@@H]2Cc3c([nH]c4cc(OCCCCCCNC(=O)CCCC(=O)NCc5ccc(CN6C(=O)[C@H]7CC(=O)N[C@H](C(=O)O)CC(=O)NCC(=O)N[C@@H](CCCNC(=N)N)C(=O)NC[C@H]6C(=O)N7)cc5)ccc34)[S+]([O-])C[C@H](NC(=O)CNC1=O)C(=O)N[C@@H](CC(N)=O)C(=O)N1C[C@H](O)C[C@H]1C(=O)N[C@@H]([C@@H](C)[C@@H](O)CO)C(=O)N2 (stereo partly drawn) [Compound 8, cyclo[DKP-isoDGR]-uncleavable-α-amanitin]
IC50 [1]: 6.8 ± 4.3 nM
IC50 [2]: 3355 ± 19.1 nM
IC50 [3]: 2200 ± 96.2 nM

CC[C@H](C)[C@@H]1NC(=O)CNC(=O)[C@@H]2Cc3c([nH]c4cc(OCc5ccc(NC(=O)[C@H](C)NC(=O)[C@@H](NC(=O)CCc6cn(CCOCCOCCOCCOCC(=O)NCc7ccc(CN8C(=O)[C@H]9CC(=O)N[C@H](C(=O)O)CC(=O)NCC(=O)N[C@@H](CCCNC(=N)N)C(=O)NC[C@H]8C(=O)N9)cc7)nn6)C(C)C)cc5)ccc34)[S+]([O-])C[C@H](NC(=O)CNC1=O)C(=O)N[C@@H](CC(N)=O)C(=O)N1C[C@H](O)C[C@H]1C(=O)N[C@@H]([C@@H](C)[C@@H](O)CO)C(=O)N2 (stereo partly drawn) [Compound 11, cyclo[DKP-isoDGR]-PEG-4-Val-Ala-α-amanitin]
more potent than α-amanitin ([2]; in U87 and MDA-MB-468 cell lines, Table 3 entry 1 vs entry 6): 2.1–2.8 times
less potent than the free drug (α-amanitin) ([4]; A549 cell line): 1.4 times

CC(=O)O[C@H]1C(=O)[C@@]2(C)[C@H]([C@H](OC(=O)c3ccccc3)[C@]3(O)C[C@H](OC(=O)[C@H](OC(=O)N(C)CCN(C)C(=O)OCc4ccc(NC(=O)[C@H](C)NC(=O)[C@@H](NC(=O)CCCC(=O)NCc5ccc(CN6C(=O)[C@H]7CC(=O)N[C@@H](CCCNC(=N)N)C(=O)NCC(=O)N[C@@H](CC(=O)O)C(=O)NC[C@H]6C(=O)N7)cc5)C(C)C)cc4)[C@@H](NC(=O)c4ccccc4)c4ccccc4)C(C)=C1C3(C)C)[C@]1(OC(C)=O)CO[C@@H]1C[C@@H]2O [Conjugate 5, cyclo[DKP-RGD]-Val-Ala-PTX]
targeting index (TI) [5]: 2.4

CC(=O)O[C@H]1C(=O)[C@@]2(C)[C@H]([C@H](OC(=O)c3ccccc3)[C@]3(O)C[C@H](OC(=O)[C@H](OC(=O)N(C)CCN(C)C(=O)OCc4ccc(NC(=O)[C@H](C)NC(=O)[C@@H](NC(=O)CCCC(=O)NCc5ccc(CN6C(=O)[C@H]7CC(=O)N[C@H](C(=O)O)CC(=O)NCC(=O)N[C@@H](CCCNC(=N)N)C(=O)NC[C@H]6C(=O)N7)cc5)C(C)C)cc4)[C@@H](NC(=O)c4ccccc4)c4ccccc4)C(C)=C1C3(C)C)[C@]1(OC(C)=O)CO[C@@H]1C[C@@H]2O [Conjugate 6, cyclo[DKP-isoDGR]-Val-Ala-PTX]
targeting index (TI) [5]: 9.9

N=C(N)NCCC[C@@H]1NC(=O)C[C@H]2NC(=O)[C@H](CNC(=O)[C@H](CC(=O)O)NC(=O)CNC1=O)N(Cc1ccccc1)C2=O [Ligand 1, cyclo[DKP-RGD]]
selectivity for αVβ3 in comparison with integrin αVβ5 (αVβ5 receptor [6]): 33–34 times
IC50 (αVβ5 receptor [7]): 149 ± 25 nM

CC[C@H](C)[C@@H]1NC(=O)CNC(=O)[C@@H]2Cc3c([nH]c4cc(O)ccc34)[S@+]([O-])C[C@H](NC(=O)CNC1=O)C(=O)N[C@@H](CC(N)=O)C(=O)N1C[C@H](O)C[C@H]1C(=O)N[C@@H]([C@@H](C)[C@@H](O)CO)C(=O)N2 [α-amanitin]
IC50 ([2]; Homo sapiens, U-87 MG): 347 ± 132 nM
IC50 ([3]; Homo sapiens, MDA-MB-468): 185 ± 49.6 nM
IC50 ([4]; Homo sapiens, A549, 96 hours treatment, triplicate, read-out: IC50 A549 (αVβ3−), inhibition of cell viability): 518 ± 305 nM

cilengitide
IC50 (αVβ3): 0.6 nM
IC50 (αVβ5): 8.4 nM
IC50 (α5β1): 14.9 nM

Reference: paper PMC5827777, “Synthesis and biological evaluation of RGD and isoDGR peptidomimetic-α-amanitin conjugates for tumor-targeting” (Beilstein Journal of Organic Chemistry, 2018)
